Paper PMC5424327, “Boosting LPMO-driven lignocellulose degradation by polyphenol oxidase-activated lignin building blocks” (Biotechnology for Biofuels, 2017)

Molecular target: T1, MtPPO7 (Thermothelomyces thermophilus, UniProt A0A1C9CXH9)
T1 construct: secreted enzyme over-expressed in homologous M. thermophila C1 (low protease/low (hemi-)cellulase strain), fractionated from culture broth; KX772412 is printed as 'UniProt' but has GenBank format
T1 sequence (A0A1C9CXH9 19-420): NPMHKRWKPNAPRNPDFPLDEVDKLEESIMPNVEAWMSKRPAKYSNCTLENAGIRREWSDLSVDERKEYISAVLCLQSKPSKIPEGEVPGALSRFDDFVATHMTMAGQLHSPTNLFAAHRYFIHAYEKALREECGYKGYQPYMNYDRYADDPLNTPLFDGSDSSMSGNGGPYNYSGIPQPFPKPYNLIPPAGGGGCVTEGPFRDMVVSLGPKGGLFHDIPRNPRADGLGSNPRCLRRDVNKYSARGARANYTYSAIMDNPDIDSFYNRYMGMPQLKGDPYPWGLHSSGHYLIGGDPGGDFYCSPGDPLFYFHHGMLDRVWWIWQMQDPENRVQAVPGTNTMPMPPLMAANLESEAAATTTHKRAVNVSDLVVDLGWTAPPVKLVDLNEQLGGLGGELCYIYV
Assay: UHPLC-UV-MSn of substrate conversion
Type: biochemical
Conditions: 2 mM substrate, 5.0 ug/mL enzyme, 50 mM potassium phosphate pH 6.0, 2.5 uM CuCl2, 50 °C, 24 h; ortho-hydroxylation

COc1ccccc1O [compound 9, Guaiacol]
conversion (%): The conversion of guaiacol by MtPPO7 resulted in the initial formation of 3-methoxycatechol
